Test results reported in patent publication US20170129911A1, “COMPLEXES COMPRISING A PLATINUM COMPOUND AND AN IMMUNE CHECKPOINT INHIBITOR AND RELATED METHODS” (Massachusetts Institute of Technology, priority 2015, published 2017).

What was measured:
[1] = system: SKOV3 cells; assay: Immunoblotting of DNA damage response markers; type: cell-based, human; conditions: up to 48 h and 72 h
Procedure: The ability of 2 to induce DNA damage was investigated by monitoring changes in expression of markers of the damage response pathway by immunoblotting analyses.
Cells were washed with PBS, scraped into SDS-PAGE loading buffer (64 mM Tris-HCl (pH 6.8)/9.6% glycerol/2% SDS/5% β-mercaptoethanol/0.01% Bromophenol Blue), and incubated at 95° C. for 10 min. Whole cell lysates were resolved by 4-20% sodium dodecylsulphate polyacylamide gel electrophoresis (SDS-PAGE; 200 V for 25 min) followed by electro transfer to polyvinylidene difluoride membrane, PVDF (350 mA for 1 h). Membranes were blocked in 5% (w/v) bovine serum albumin in PBST (PBS/0.1% Tween 20) and incubated with the appropriate primary antibodies (Cell Signalling Technology and Santa Cruz). After incubation with horseradish peroxidase-conjugated secondary antibodies (Cell Signalling Technology), 1:1000, immuno complexes were detected with the ECL detection reagent (BioRad) and analyzed using UVP biospectrum imaging system fitted with a chemiluminescence filter.

[2] = system: SKOV3 cells; assay: Subcellular distribution of platinum (GFAAS); type: cell-based, human; conditions: SKOV3, 5 μM, 17 h
Procedure: To gain further insight into the mode of action was studied of 1 and 2, the subcellular distribution of platinum. SKOV3 cells were incubated with the drug candidates (5 μM) for 17 h, using cisplatin as a control. The platinum content was measured by using GFAAS.
To measure cellular uptake, ca. 20 million SKOV3 cells were treated with 5 μM compounds 1, 2 and cisplatin at 37° C. for 17 h. The media were removed, and the cells were washed with PBS solution (1 mL×3), harvested, and centrifuged. The cell pellet was suspended in an appropriate volume of PBS to obtain a homogeneous suspension (100 μL). The nuclear and cytoplasmic extraction kit (NE-PER, Thermo Scientific Inc.) was used to extract the separate cytoplasmic, nuclear, and pelleted fractions. The fractions were mineralized with 70% HNO3 and then heated at 95° C. for 10 min. The platinum content was analyzed by GF-AAS. Cellular platinum levels were expressed as pmol of Pt per million cells. Results are presented as the mean of three determinations for each data point.

[3] = system: SKOV3 cells; assay: Annexin V/sytox green apoptosis dead cell assay; type: cell-based, human; conditions: 72 h of treatment
Source text: Therapeutic nanoparticles (NPs) have been widely investigated for their potential to enhance cancer treatment. The chemical structure of 2 bears both hydrophilic (1-D-MT) and hydrophobic (hexadecyl isocyanate) axial ligands, conferring amphiphilic character to the molecule. In some cases, the hexadecyl isocyanate axial ligand facilitate non-covalent binding to human serum albumin, protecting the Pt(IV) center from premature reduction in blood. In the presence of the biodegradable block copolymer, poly(lactic-co-glycolic acid)-polyethylene glycol (PLGA-PEG), 2 readily self-assembles into NPs suitable for preclinical studies (FIG. 5A). […] Having obtained the nanoparticles, the ability of 2 and its NP to induce apoptosis was investigated. Translocation of phosphatidylserine residues to the exterior is a characteristic of apoptotic cells, which have a compromised cell membrane, and can be detected by annexin V. Using a dual staining annexin V/sytox green apoptosis dead cell assay, we examined the apoptotic behavior of SKOV3 cells after 72 h of treatment with 2 and its NP by flow cytometry.

[4] = In vivo blood stability in mice
Procedure: The hydrophobic complex 2 was extracted with octanol, diluted, and the Pt concentration was determined by GFAAS.
The octanol extracts were diluted with methanol and analysed by GFAAS.

[5] = biological target: HSA (Homo sapiens, UniProt P02768); assay: HSA binding (FPLC, GFAAS, ESI-MS); conditions: ESI mass-spectrometric analysis
HSA, sequence (P02768 25-609): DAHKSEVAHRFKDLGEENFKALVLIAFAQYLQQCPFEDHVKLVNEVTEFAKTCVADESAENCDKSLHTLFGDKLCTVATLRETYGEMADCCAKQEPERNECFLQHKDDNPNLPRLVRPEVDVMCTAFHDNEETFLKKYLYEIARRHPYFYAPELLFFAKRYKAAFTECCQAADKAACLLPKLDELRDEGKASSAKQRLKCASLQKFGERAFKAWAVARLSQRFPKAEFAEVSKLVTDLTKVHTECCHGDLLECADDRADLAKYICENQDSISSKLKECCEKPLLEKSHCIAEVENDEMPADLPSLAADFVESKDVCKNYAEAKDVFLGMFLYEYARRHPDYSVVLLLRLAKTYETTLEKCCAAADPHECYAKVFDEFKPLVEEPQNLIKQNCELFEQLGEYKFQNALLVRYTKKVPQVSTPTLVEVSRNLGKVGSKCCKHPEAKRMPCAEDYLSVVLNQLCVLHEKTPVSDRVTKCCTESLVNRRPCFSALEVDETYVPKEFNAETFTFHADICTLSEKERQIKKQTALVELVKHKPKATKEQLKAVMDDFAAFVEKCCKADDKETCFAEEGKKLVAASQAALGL

[6] = system: Eμ-Myc lymphoma cells; assay: RNAi signature (GFP competition) assay; conditions: LD80-90 dose, 72 h
[7] = system: SKOV3 cells; assay: Cell cycle analysis by flow cytometry (DNA content)
[8] = Water-octanol partition coefficient (Log P), shake-flask method and GFAAS; conditions: octanol/PBS

CCCCCCCCCCCCCCCCNC(=O)[O][Pt]([NH2])([NH2])([Cl])([Cl])[O]C(=O)CCC(=O)NCCOC(=O)[C@H](N)Cc1cn(C)c2ccccc12 (mixture of isomers) [Compound 2, cis,cis,trans-[Pt(NH3)2Cl2(O2CC2H4OCNHC2H4O2C-D-1MT)(O2CNHC16H33)]]
expression of DNA damage response markers [1]: marked time-dependent increase in expression of phosphorylated ATR, ATM, BRCA1, Chk1, Chk2, H2AX, and p53
platinum content within the nucleus [2]: comparable to that of cisplatin
induction of apoptosis [3]: induced large populations of SKOV3 cells to undergo apoptosis
Pt concentration in blood (octanol extract) ([4]; 24 h after i.v. NP formulation of 2, 8 mg/kg): non-detectable levels
half-life ([4]; female, Balb/c, mouse, whole blood, iv, 8 mg/kg): ~1 h
binding to HSA [5]: binds HSA
RNAi signature [6]: strong p53 and Chk2 shRNA enrichment
cell cycle arrest phase [7]: cell cycle block at G1 phase
logP at 3 h [8]: 1.35 ± 0.26
